Measurements published in PubChem BioAssay (NCI).
“And” between values parts separate entries of the source, which are not always exact repeats. Equal entries are not always repeated.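 1) Cells in 96-well plates. 2) Compound, 48 h, 5 concentrations. 3) Linear interpolation between surrounding doses. 4) Unreached endpoint = highest concentration. The concentration for 50% growth inhibition is given as GI50. The concentration for full growth arrest is given as TGI.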

Assays:
Test in all cases: NCI anticancer screen, dose series, 48 h
[1] = system: BT-549 breast
[2] = system: DU-145 prostate
[3] = system: HL-60(TB) leukemia
[4] = system: HS 578T breast
[5] = system: IGROV1 ovarian
[6] = system: NCI-H226 lung
[7] = system: SF-539 CNS
[8] = system: TK-10 renal
[9] = system: KM20L2 colon
[10] = system: M19-MEL melanoma

SMILES | GI50 [1] [µM] | TGI [1] [µM] | GI50 [2] | TGI [2] | GI50 [3] [µM] | TGI [3] [µM] | GI50 [4] [µM] | TGI [4] [µM] | GI50 [5] [µM] | TGI [5] [µM] | GI50 [6] [µM] | TGI [6] [µM] | GI50 [7] [µM] | TGI [7] [µM] | GI50 [8] [µM] | TGI [8] [µM] | TGI [9] [µM] | TGI [10] [µM] | GI50 [9] [µM]
C[C@H]1CCC/C=C/[C@@H]2C[C@H](O)C[C@H]2[C@H](O)[C@@H](SCC(O)CO)CC(=O)O1 (some centres undefined) | 69.2 | > 100 | 17.8 µM | 39.2 µM | 29.3 | 94.7 | 9.52 | > 100 | 37.2 | > 100 | 18.7 | 44 | 31.8 | > 100 | 48 | > 100 |  |  | 
C=CCn1c2c(sc1=S)C(S)N=CN2 (centres undefined) |  |  |  |  |  | > 100 |  |  |  | > 100 |  | > 100 |  | > 100 |  | > 100 | > 100 | > 100 | 
O=C(O)CSc1n[nH]c(Cc2ccccc2)n1 |  |  |  |  |  | > 100 |  |  |  | > 100 |  | > 100 |  | > 100 |  | > 100 |  | > 100 | 
CC1=C(C(=O)NNS(=O)(=O)c2ccc(C)cc2)CC(C(=O)NNS(=O)(=O)c2ccc(C)cc2)=C(C)N1 |  |  |  |  |  | > 100 |  |  |  | > 100 |  | > 100 |  | > 100 |  | > 100 | > 100 | > 100 | 
CCOc1ccccc1NC(=O)C(=O)Cc1nc2ccccc2s1 |  |  |  |  |  | > 100 |  |  |  | > 100 |  | > 100 |  | > 100 |  | > 100 | > 100 | > 100 | 
CCCCCCCCCCCCOC1C(C(CC(=O)NCCN2CCCC2)NS(=O)(=O)c2cc(Cl)cc(Cl)c2)OC2OC(C)(C)OC21 (centres undefined) | 1.79 | 3.24 | 1.86 µM and 1.79 µM | 3.45 µM and 3.23 µM | 1.64 | 3.76 | 2.23 | 4.16 | 1.95 | 3.6 | 1.86 | 4.04 | 2.01 | 3.48 | 2 | 3.82 |  |  | 
Cc1cc2c(nn1)-c1ccccc1C2=O |  | > 10 |  | > 10 µM |  | > 10 |  | > 10 |  | > 10 |  | > 10 |  | > 10 |  | > 10 |  |  | 
O=C1C(=O)N(c2cc(Cl)ccc2Cl)C(=O)C(=O)C1c1nc2ccccc2o1 |  |  |  |  |  | > 100 |  |  |  | > 100 |  |  |  | > 100 |  | > 100 | > 100 | > 100 | 
N.N.NCCCCCCCCCN.O=C([O-])CC(=O)[O-].O=C([O-])CC(=O)[O-].[Pt+4].[Pt+4] |  |  |  |  | 13.4 | > 100 |  |  | > 100 | > 100 | > 100 | > 100 | > 100 | > 100 | > 100 | > 100 | > 100 |  | > 100
CCN(CC)CCNc1ccc2ncn3c4cc(OC)c(OC)c(=O)c4c(O)c1c23 |  | 30.5 |  | 23.5 µM |  | 26.3 |  | 29.1 |  | 35.6 |  | 45.6 |  | 29 |  | 31.6 |  |  | 
Cc1cccc(N=C2NC(=O)C(CC(=O)Nc3cccc(C)c3C)S2)c1 (centres undefined) |  |  |  |  |  | > 100 |  |  |  | > 100 |  | > 100 |  |  |  | > 100 | > 100 | > 100 | 
